Measurements as given in ChEMBL document CHEMBL1201862, “PubChem BioAssay data set” (2004).
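Cultured in 96-well plates, cells were exposed to test compound for 48 hours across five concentrations. Abbreviation: GI50, concentration required for 50% inhibition of growth.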 Calls of active or inactive are those of the source. Cut-off read from the data, not from the text of the source: active = GI50 up to about 1.1 µM and inactive = higher.

Experiments:
Assay in all cases: NCI-60 cell line screen, 48 h
NCI-H23 = test system: NCI-H23
OVCAR-8 = test system: OVCAR-8
EKVX = test system: EKVX
SK-MEL-28 = test system: SK-MEL-28
RXF 393 = test system: RXF 393
SN12C = test system: SN12C
SK-OV-3 = test system: SK-OV-3
COLO 205 = test system: COLO 205
HOP-62 = test system: HOP-62
CAKI-1 = test system: CAKI-1
SNB-19 = test system: SNB-19
SF-268 = test system: SF-268
M14 = test system: M14
OVCAR-4 = test system: OVCAR-4
HT-29 = test system: HT-29
UACC-257 = test system: UACC-257
Malme-3M = test system: Malme-3M
SNB-75 = test system: SNB-75

Measured: GI50

COc1cccc(C2N3CCCCC3[C@@H]3c4[nH]c5ccccc5c4CCN23)c1OC (stereo not given in full)
inactive: NCI-H23 16.9 µM | OVCAR-8 16.5 µM | EKVX 17.9 µM | SK-MEL-28 16.8 µM | RXF 393 13.4 µM | SN12C 16.9 µM | SK-OV-3 17.5 µM | COLO 205 15.2 µM | HOP-62 15.9 µM | CAKI-1 16.2 µM | SNB-19 11.9 µM | SF-268 11.5 µM | M14 16.1 µM | OVCAR-4 17.7 µM | HT-29 12.9 µM | UACC-257 15.9 µM

Nc1ncnc2c1ncn2C1OC(CSC(F)(F)F)C(O)C1O (stereo not given)
inactive: NCI-H23 > 100 µM | OVCAR-8 > 100 µM | EKVX > 100 µM | SK-MEL-28 > 100 µM | Malme-3M > 100 µM | SN12C > 100 µM | SNB-75 > 100 µM | SK-OV-3 > 100 µM | COLO 205 > 100 µM | HOP-62 > 100 µM | CAKI-1 > 100 µM | SF-268 > 100 µM | M14 > 100 µM | OVCAR-4 > 100 µM | HT-29 > 100 µM | UACC-257 > 100 µM

Nc1ccc2nc(NCc3ccc(F)cc3)cnc2c1
inactive: NCI-H23 > 100 µM | OVCAR-8 > 100 µM | EKVX > 100 µM | SK-MEL-28 > 100 µM | RXF 393 59.6 µM | Malme-3M > 100 µM | SN12C > 100 µM | SNB-75 29.2 µM | COLO 205 > 100 µM | HOP-62 > 100 µM | SNB-19 44.5 µM | SF-268 > 100 µM | M14 > 100 µM | OVCAR-4 > 100 µM | HT-29 > 100 µM

N#CC(C(=N/O)/C(=N\O)C(C#N)c1ccccc1)c1ccccc1 (stereo not given)
inactive: NCI-H23 > 100 µM | OVCAR-8 > 100 µM | EKVX > 100 µM | SK-MEL-28 > 100 µM | RXF 393 > 100 µM | Malme-3M > 100 µM | SN12C > 100 µM | SNB-75 > 100 µM | SK-OV-3 > 100 µM | COLO 205 > 100 µM | HOP-62 > 100 µM | SNB-19 > 100 µM | SF-268 > 100 µM | M14 > 100 µM | OVCAR-4 > 100 µM | HT-29 > 100 µM | UACC-257 > 100 µM

O=C1c2ccccc2C(=O)N1C/C=N/NS(=O)(=O)c1ccc(Cl)cc1
inactive: NCI-H23 > 100 µM | OVCAR-8 > 100 µM | EKVX > 100 µM | Malme-3M > 100 µM | SN12C > 100 µM | SNB-75 66.1 µM | COLO 205 > 100 µM | HOP-62 > 100 µM | CAKI-1 > 100 µM | SNB-19 > 100 µM | SF-268 > 100 µM | M14 > 100 µM | OVCAR-4 > 100 µM | HT-29 > 100 µM | UACC-257 > 100 µM

CCCCNS(=O)(=O)c1ccc(-c2ccc3c(c2)-c2ccc(S(=O)(=O)NCCCC)cc2S3(=O)=O)cc1
inactive: NCI-H23 12.7 µM | OVCAR-8 7.98 µM | EKVX 39.4 µM | SK-MEL-28 10 µM | RXF 393 10.8 µM | Malme-3M 14.9 µM | SK-OV-3 16.9 µM | COLO 205 25.3 µM | HOP-62 14.9 µM | SF-268 9.48 µM | M14 17.3 µM | OVCAR-4 2.65 µM | HT-29 19.2 µM | UACC-257 13.1 µM

C[C@@H](NC1CCCC[C@H]1O)c1ccccc1 (stereo not given in full)
inactive: NCI-H23 > 100 µM | OVCAR-8 > 100 µM | EKVX > 100 µM | SK-MEL-28 > 100 µM | RXF 393 > 100 µM | Malme-3M > 100 µM | SN12C > 100 µM | SNB-75 77.6 µM | SK-OV-3 > 100 µM | COLO 205 > 100 µM | HOP-62 > 100 µM | SNB-19 > 100 µM | SF-268 > 100 µM | M14 > 100 µM | OVCAR-4 > 100 µM | HT-29 > 100 µM | UACC-257 > 100 µM

Cc1cc2c(C=O)n[nH]c2c(C#N)c1C
inactive: NCI-H23 29.6 µM | OVCAR-8 43 µM | EKVX > 100 µM | SK-MEL-28 48.4 µM | Malme-3M > 100 µM | SN12C 29.3 µM | SNB-75 7.43 µM | SK-OV-3 > 100 µM | COLO 205 > 100 µM | HOP-62 > 100 µM | SNB-19 > 100 µM | SF-268 31.9 µM | M14 35.9 µM | OVCAR-4 29.2 µM | HT-29 53.6 µM | UACC-257 43.5 µM

CC1=C(C(=O)Nc2ccccc2C)C(c2ccccc2O)C(C(=O)Nc2ccccc2C)=C(C)N1
inactive: NCI-H23 34.2 µM | OVCAR-8 19.8 µM | EKVX 30.8 µM | SK-MEL-28 28 µM | RXF 393 25.6 µM | Malme-3M 26.7 µM | SN12C 19.5 µM | SNB-75 24.5 µM | HOP-62 21.1 µM | CAKI-1 23.4 µM | SNB-19 23.4 µM | SF-268 33.7 µM | M14 18.2 µM | OVCAR-4 22.2 µM | HT-29 25.7 µM | UACC-257 22 µM

CCOC(=O)/C(=C/c1ccc(C(=O)OC)cc1)N(CC)CC
inactive: NCI-H23 36.6 µM | OVCAR-8 63 µM | EKVX 35.4 µM | SK-MEL-28 > 100 µM | Malme-3M 90.4 µM | SN12C 70.8 µM | SK-OV-3 50.5 µM | COLO 205 70.1 µM | HOP-62 51.6 µM | CAKI-1 41.6 µM | SNB-19 54.5 µM | SF-268 40.1 µM | M14 40.2 µM | OVCAR-4 48.2 µM | UACC-257 57.3 µM

CCOC(=O)COc1cccc2c1C(=O)CCO2
inactive: NCI-H23 > 100 µM | OVCAR-8 > 100 µM | EKVX > 100 µM | SK-MEL-28 > 100 µM | Malme-3M > 100 µM | SN12C > 100 µM | SK-OV-3 > 100 µM | COLO 205 > 100 µM | HOP-62 > 100 µM | CAKI-1 > 100 µM | SNB-19 > 100 µM | SF-268 > 100 µM | M14 > 100 µM | OVCAR-4 > 100 µM | HT-29 > 100 µM | UACC-257 > 100 µM

CC/C(=N/O)c1ccc2[nH]c3c(C)cc([N+](=O)[O-])c(C)c3c2c1
inactive: NCI-H23 82.4 µM | OVCAR-8 53.2 µM | EKVX > 100 µM | SK-MEL-28 > 100 µM | Malme-3M 51.3 µM | SN12C 76.2 µM | SNB-75 57.3 µM | COLO 205 71.4 µM | HOP-62 44 µM | CAKI-1 > 100 µM | SNB-19 > 100 µM | SF-268 61.4 µM | M14 23.6 µM | OVCAR-4 87.9 µM | HT-29 37.4 µM | UACC-257 95.1 µM

CS(=O)(=O)NNS(=O)(=O)c1ccccc1
inactive: NCI-H23 > 100 µM | OVCAR-8 > 100 µM | EKVX > 100 µM | RXF 393 > 100 µM | Malme-3M > 100 µM | SN12C > 100 µM | SNB-75 > 100 µM | COLO 205 > 100 µM | HOP-62 > 100 µM | CAKI-1 > 100 µM | SNB-19 > 100 µM | SF-268 > 100 µM | M14 > 100 µM | OVCAR-4 > 100 µM | HT-29 > 100 µM | UACC-257 > 100 µM
